Numbered stars: 1 amine (or outer) side, 2 acyl side, 3 side chain; on linkers, the order of the positions; unused ones are H or OH. Bridge positions count the residues as written; N and C are the ends. Square brackets hold non-standard residues; d marks the D form. Peptide text beside a SMILES is read from it. Trp(7-nPr) = CCCc1cccc2c(C[C@H](N[*:1])C(=O)[*:2])c[nH]c12; Trp(7-Me) = Cc1cccc2c(C[C@H](N)C(=O)O)c[nH]c12; 2Nal = N[C@@H](Cc1ccc2ccccc2c1)C(=O)O; AEF = NCCOc1ccc(C[C@H](N)C(=O)O)cc1; Cit = NC(=O)NCCC[C@H](N)C(=O)O; αMeL = CC(C)C[C@](C)(N)C(=O)O; Pen = CC(C)(S)[C@H](N)C(=O)O; αMeK = C[C@](N)(CCCCN)C(=O)O; Aib = CC(C)(N)C(=O)O; βAla = NCCC(=O)O
B1: SEQ ID NO: 201 (peptide)
peptide: XNTXQXXXXKNX
modifications: Ac-[Pen]-NT-[W(7-Me)]-Q-[Pen]-Phe[4-(2-aminoethoxy)]-[2-Nal]-[a-MeLeu]-[Lys(Ac)]-N-[bA]-NH2; Pen-Pen disulfide
B2: SEQ ID NO: 223 (peptide)
peptide: XNTXQXXXXKXX
modifications: Ac-[Pen]-NT-[W(7-Me)]-Q-[Pen]-Phe[4-(2-aminoethoxy)]-[2-Nal]-[a-MeLeu]-[Lys(Ac)]-[N-MeAla]-[bA]-NH2; Pen-Pen disulfide
B3: SEQ ID NO: 278 (peptide)
peptide: XNTXQXXXXKNX
modifications: Ac-[Pen]-N-T-[W(7-Me)]-Q-[Pen]-Phe[4-(2-aminoethoxy)]-[2-Nal]-[a-MeOrn]-[Lys(Ac)]-N-[bA]-NH2; Pen-Pen disulfide

Experiments:
NK cells = experiment: NK cell based assay (IL-23/IL-18-induced IFNγ, Quantikine ELISA); details: human primary NK cells, IL-23 at EC50 to EC75 + IL-18 10 ng/mL, IFNγ after 20 to 24 hours
Experimental: killer (NK) cells, purified from human peripheral blood of healthy donors by negative selection (Miltenyi Biotech, Cat #130-092-657), were cultured in complete media (RPMI 1640 containing […], L-glutamine and penicillin-streptomycin) in the presence of IL-2 (RnD, Cat #202-IL-010/CF) at 25 ng/mL. After 7 days, cells were centrifuged, and resuspended in complete media at IE6 cells/mL. […] After 20 to 24 hours, IFNγ in the supernatant was quantified using Quantikine ELISA (RnD, Cat #DIF50).

in vitro [1] = details: both, SD, rat
Experimental: Peptides of interest (20 μM) were incubated with pre-warmed rat plasma (SD rat, mixed gender pooled, EDTA, filtered through 0.22 μm, BioreclamationIVT) at 37° C. […] Quenched samples were stored at 4° C. until the end of the experiment and centrifuged at 4,000 rpm for 10 minutes. The supernatant were diluted 1:1 with deionized water and analyzed using LC-MS. Percentage remaining at each time point was calculated based on the peak area ratio (analyte over internal standard) relative to the initial level at time zero. Half-lives were calculated by fitting to a first-order exponential decay equation using GraphPad.

in vitro [2] = details: cynomolgus monkey, 20% fecal homogenate (supernatant), anaerobic, pH 6.8
IL-23R [3] = target: T1, IL-23R (Homo sapiens, UniProt Q5VWK5); experiment: DB cells IL23R pSTAT3 cell assay (pStat3 HTRF); type: cell-based; details: Table E3; DB cells, IL-23 0.5 nM, 30 minutes at 37° C.; read-out: pStat3 HTRF (IC50)
T1 sequence (Q5VWK5 24-629): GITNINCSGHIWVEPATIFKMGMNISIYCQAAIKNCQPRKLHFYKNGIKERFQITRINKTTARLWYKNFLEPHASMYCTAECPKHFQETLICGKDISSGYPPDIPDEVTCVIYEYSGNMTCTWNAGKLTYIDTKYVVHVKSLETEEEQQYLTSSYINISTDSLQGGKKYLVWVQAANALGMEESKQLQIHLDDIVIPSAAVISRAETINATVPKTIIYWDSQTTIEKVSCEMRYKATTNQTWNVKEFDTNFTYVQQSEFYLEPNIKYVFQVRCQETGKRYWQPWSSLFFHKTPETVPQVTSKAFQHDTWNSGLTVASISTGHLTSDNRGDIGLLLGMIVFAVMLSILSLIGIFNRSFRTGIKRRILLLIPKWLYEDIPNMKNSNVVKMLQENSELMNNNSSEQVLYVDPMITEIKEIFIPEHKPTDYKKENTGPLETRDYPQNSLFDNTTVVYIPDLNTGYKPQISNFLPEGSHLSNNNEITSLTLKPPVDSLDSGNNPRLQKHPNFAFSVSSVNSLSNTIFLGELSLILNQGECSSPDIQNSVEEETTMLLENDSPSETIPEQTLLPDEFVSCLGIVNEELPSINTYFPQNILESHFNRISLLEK
Method in brief: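 HTRF readout of lysate pSTAT3 (Tyr705) after two-plate processing. Peptide dilution series co-incubated with IL-23 (0.5 nM final) on 5×10E5 IL-23R-expressing DB cells per well, 30 min, 37 °C.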

in vitro [4] = details: human, 20% fecal homogenate (supernatant), anaerobic, pH 6.8
Experimental: Fecal homogenate (20%) was prepared by adding 4 mL of growth medium (1 liter contains 2 g peptone water powder, 2 g yeast extract, 0.1 g NaCl, 0.04 g KH2PO4, 0.01 g CaCl2·6H2O, 0.01 g MgSO4·7H2O, 2 mL Tween 80, 0.5 g bile salts, 0.5 g L-cysteine HCl, 2 g NaHCO3, and 10 μL Vitamin K, pH adjusted to 6.8, and sterilized by filtration through a 0.22 μm filter) to every gram of feces (pooled freshly collected human or cynomolgus monkey feces). The suspension was vortexed to break up large clumps, and homogenized using a bead mill homogenizer. Centrifuged the homogenate at 2800×g for 15 min. The supernatant is taken out and used for incubations. DMSO stocks (10 mM) were first prepared for the test compounds. Incubations were performed in an anaerobic chamber conditioned at 37° C. Aliquots of the DMSO solutions were dosed into 1.0 mL aliquots of 20% fecal homogenate, which are pre-warmed to 37° C. The final test compound concentration was 20 μM. At each timepoint (0, 20 min, 1, 3, 6, or 24 hours), 100 μL aliquot of each incubation mixture is taken out and added to separate tubes containing 300 μL of 50% acetonitrile/50% methanol and an internal standard to terminate the reaction. Samples were taken out of the anaerobic chamber and stored at 4° C. until the end of the experiment. After the final timepoint is sampled, the tubes were mixed and then centrifuged at 3,000 rpm for 10 minutes. Aliquots of the supernatant were removed, diluted 1:1 into distilled water containing 0.1% formic acid, and analyzed by LC/MS/MS. Percent remaining at each timepoint was calculated based on the peak area response ratio of test to compound to internal standard. Time 0 was set to 100%, and all later timepoints were calculated relative to time 0. Half-lives were calculated by fitting to a first-order exponential decay equation using Graphpad or Excel.

IL-23R [5] = target: T2, IL-23R (human, UniProt Q5VWK5 24-629); experiment: cell-based or functional assay
T2 sequence (looked up): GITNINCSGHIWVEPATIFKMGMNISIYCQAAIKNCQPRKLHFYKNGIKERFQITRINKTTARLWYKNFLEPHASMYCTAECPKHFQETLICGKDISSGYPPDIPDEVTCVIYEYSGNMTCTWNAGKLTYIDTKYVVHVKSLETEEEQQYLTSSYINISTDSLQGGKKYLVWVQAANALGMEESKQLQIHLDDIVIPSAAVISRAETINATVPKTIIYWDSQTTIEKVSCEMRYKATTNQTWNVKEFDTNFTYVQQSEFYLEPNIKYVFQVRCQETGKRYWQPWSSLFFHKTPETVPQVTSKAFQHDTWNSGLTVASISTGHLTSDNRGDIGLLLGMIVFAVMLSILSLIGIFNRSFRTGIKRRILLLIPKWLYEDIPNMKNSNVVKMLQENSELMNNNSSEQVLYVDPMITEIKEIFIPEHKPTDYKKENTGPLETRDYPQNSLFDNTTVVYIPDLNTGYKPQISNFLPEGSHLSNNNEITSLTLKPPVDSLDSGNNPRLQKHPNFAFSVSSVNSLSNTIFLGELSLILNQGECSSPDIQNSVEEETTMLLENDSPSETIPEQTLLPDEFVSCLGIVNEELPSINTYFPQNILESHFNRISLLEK

IL-23R [6] = target: T2, IL-23R; experiment: cell-based or functional assay; remark: listed apart in the source

Row | Molecule | IC50 (NK cells) [nM] | half-life at 20 μM (in vitro [1]; plasma (EDTA, pooled)) [h] | half-life at 20 μM (in vitro [2]) [h] | IC50 (IL-23R [3]) [nM] | half-life at 20 μM (in vitro [4]) [h] | half-life at 20 μM (in vitro [1]; plasma (EDTA)) [h] | NK Cell Assay (nM) IC50 (IL-23R [5]) [nM] | pStat3 HTRF (nM) IC50 (IL-23R [6]) [nM]
1 | CC(=O)NCCCC[C@@H]1NC(=O)[C@H](Cc2c[nH]c3c(C)cccc23)NC(=O)[C@H]([C@@H](C)O)NC(=O)[C@H](CC(N)=O)NC(=O)[C@@H](NC(C)=O)C(C)(C)SSC(C)(C)[C@@H](C(=O)N[C@@H](Cc2ccc(OCCN)cc2)C(=O)N[C@@H](Cc2ccc3ccccc3c2)C(=O)N[C@@](C)(CCCCN)C(=O)N[C@@H](CCCCNC(C)=O)C(=O)N[C@@H](CC(N)=O)C(=O)N[C@H](CCCCN)C(N)=O)NC1=O [SEQ ID No. 252, Ac-[Pen]-NT-[W(7-Me)]-[Lys(Ac)]-[Pen]-Phe[4-(2-aminoethoxy)]-[2-Nal]-[a-MeLys]-[Lys(Ac)]-N-[(D)Lys]-NH2] | < 10 | > 24 | > 24 | < 1 | > 24 |  |  | 
2 | CC(=O)NCCCC[C@H](NC(=O)[C@](C)(CCCCN)NC(=O)[C@H](Cc1ccc2ccccc2c1)NC(=O)[C@H](Cc1ccc(OCCN)cc1)NC(=O)[C@H]1NC(=O)[C@H](CCC(N)=O)NC(=O)[C@H](Cc2c[nH]c3c(C)cccc23)NC(=O)[C@H]([C@@H](C)O)NC(=O)[C@H](CC(N)=O)NC(=O)[C@@H](NC(C)=O)C(C)(C)SSC1(C)C)C(=O)N[C@@H](CC(N)=O)C(=O)NCCC(N)=O [compound 202] | < 10 |  | 12 | 1 to 10 |  |  |  | 
3 | CC(=O)NCCCC[C@H](NC(=O)[C@](C)(CC(C)C)NC(=O)[C@H](Cc1ccc2ccccc2c1)NC(=O)[C@H](Cc1ccc(OCCN)cc1)NC(=O)[C@H]1NC(=O)[C@H](CCC(N)=O)NC(=O)[C@H](Cc2c[nH]c3c(C)cccc23)NC(=O)[C@H]([C@@H](C)O)NC(=O)[C@H](CC(N)=O)NC(=O)[C@@H](NC(C)=O)C(C)(C)SSC1(C)C)C(=O)NCC(=O)NCCC(N)=O [compound 205] | 11 to 100 |  | > 24 | 1 to 10 | > 24 | 1 |  | 
4 | CC(=O)NCCCC[C@H](NC(=O)[C@](C)(CC(C)C)NC(=O)[C@H](Cc1ccc2ccccc2c1)NC(=O)[C@H](Cc1ccc(OCCN)cc1)NC(=O)[C@H]1NC(=O)[C@H](CCC(N)=O)NC(=O)[C@H](Cc2c[nH]c3c(C)cccc23)NC(=O)[C@H]([C@@H](C)O)NC(=O)[C@H](CC(N)=O)NC(=O)[C@@H](NC(C)=O)C(C)(C)SSC1(C)C)C(=O)N[C@@H](CCCNC(N)=O)C(=O)NCCC(N)=O [compound 206] | 11 to 100 |  | > 24 | 10 to 100 | 20 |  |  | 
5 | CC(=O)NCCCC[C@H](NC(=O)[C@](C)(CC(C)C)NC(=O)[C@H](Cc1ccc2ccccc2c1)NC(=O)[C@H](Cc1ccc(OCCN)cc1)NC(=O)[C@H]1NC(=O)[C@H](CCC(N)=O)NC(=O)[C@H](Cc2c[nH]c3c(C)cccc23)NC(=O)[C@H]([C@@H](C)O)NC(=O)[C@H](CC(N)=O)NC(=O)[C@@H](NC(C)=O)C(C)(C)SSC1(C)C)C(=O)N[C@@H](C)C(=O)NCCC(N)=O [compound 207] | < 10 |  | > 24 | 1 to 10 | > 24 | 2 |  | 
6 | CC(=O)NCCCC[C@H](NC(=O)[C@](C)(CC(C)C)NC(=O)[C@H](Cc1ccc2ccccc2c1)NC(=O)[C@H](Cc1ccc(OCCN)cc1)NC(=O)[C@H]1NC(=O)[C@H](CCC(N)=O)NC(=O)[C@H](Cc2c[nH]c3c(C)cccc23)NC(=O)[C@H]([C@@H](C)O)NC(=O)[C@H](CC(N)=O)NC(=O)[C@@H](NC(C)=O)C(C)(C)SSC1(C)C)C(=O)N[C@@H](CC(C)C)C(=O)NCCC(N)=O [compound 208] | < 10 |  | > 24 | 1 to 10 | > 24 | 2 |  | 
7 | CC[C@H](C)[C@H](NC(=O)[C@H](CCCCNC(C)=O)NC(=O)[C@](C)(CC(C)C)NC(=O)[C@H](Cc1ccc2ccccc2c1)NC(=O)[C@H](Cc1ccc(OCCN)cc1)NC(=O)[C@H]1NC(=O)[C@H](CCC(N)=O)NC(=O)[C@H](Cc2c[nH]c3c(C)cccc23)NC(=O)[C@H]([C@@H](C)O)NC(=O)[C@H](CC(N)=O)NC(=O)[C@@H](NC(C)=O)C(C)(C)SSC1(C)C)C(=O)NCCC(N)=O [compound 216] | 101 to 500 |  | > 24 | 10 to 100 | > 24 | 13 |  | 
8 | CC(=O)NCCCC[C@H](NC(=O)[C@](C)(CC(C)C)NC(=O)[C@H](Cc1ccc2ccccc2c1)NC(=O)[C@H](Cc1ccc(OCCN)cc1)NC(=O)[C@H]1NC(=O)[C@H](CCC(N)=O)NC(=O)[C@H](Cc2c[nH]c3c(C)cccc23)NC(=O)[C@H]([C@@H](C)O)NC(=O)[C@H](CC(N)=O)NC(=O)[C@@H](NC(C)=O)C(C)(C)SSC1(C)C)C(=O)N(C)CC(=O)NCCC(N)=O [compound 224] | 101 to 500 |  | > 24 | > 100 | > 24 |  |  | 
9 | CC(=O)NCCCC[C@H](NC(=O)[C@](C)(CC(C)C)NC(=O)[C@H](Cc1ccc2ccccc2c1)NC(=O)[C@H](Cc1ccc(OCCN)cc1)NC(=O)[C@H]1NC(=O)[C@H](CCC(N)=O)NC(=O)[C@H](Cc2c[nH]c3c(C)cccc23)NC(=O)[C@H]([C@@H](C)O)NC(=O)[C@H](CC(N)=O)NC(=O)[C@@H](NC(C)=O)C(C)(C)SSC1(C)C)C(=O)N[C@@](C)(CC(C)C)C(=O)NCCC(N)=O [compound 225] | 101 to 500 |  | > 24 | 10 to 100 | > 24 |  |  | 
10 | CC(=O)NCCCC[C@H](NC(=O)[C@](C)(CC(C)C)NC(=O)[C@H](Cc1ccc2ccccc2c1)NC(=O)[C@H](Cc1ccc(OCCN)cc1)NC(=O)[C@H]1NC(=O)[C@H](CCCNC(N)=O)NC(=O)[C@H](Cc2c[nH]c3c(C)cccc23)NC(=O)[C@H]([C@@H](C)O)NC(=O)[C@H](CC(N)=O)NC(=O)[C@@H](NC(C)=O)C(C)(C)SSC1(C)C)C(=O)N[C@@H](CC(N)=O)C(=O)NCCC(N)=O [compound 227] (Ac-[Pen]NT[Trp(7-Me)][Cit][Pen][AEF][2Nal][αMeL]K(Ac)N[βAla]-NH2; disulfide 1-6) | < 10 |  |  | < 1 |  |  |  | 
11 | Ac-[Pen]NT[Trp(7-nPr)]K(Ac)[Pen][AEF][2Nal][αMeK]K(Ac)N[dL]-NH2 (disulfide 1-6 (inferred)) [SEQ ID NO: 285] |  |  |  |  |  |  | < 10 | < 1
12 | B1 |  |  |  |  |  |  | < 10 | < 1
13 | Ac-[Pen]NT[Trp(7-Me)][Cit][Pen][AEF][2Nal][αMeK]K(Ac)N[Aib]-NH2 (disulfide 1-6 (inferred)) [SEQ ID NO: 264] |  |  |  |  |  |  | < 10 | < 1
14 | B2 |  |  |  |  |  |  | < 10 | > 100
15 | Ac-[Pen]NT[Trp(7-Me)][Cit][Pen][AEF][2Nal][αMeL]K(Ac)N[βAla]-NH2 (disulfide 1-6) [SEQ ID NO: 227] |  |  |  |  |  |  | < 10 | < 1
16 | B3 |  |  |  |  |  |  | < 10 | < 1

— US20260116921A1, “PEPTIDE INHIBITORS OF INTERLEUKIN-23 RECEPTOR AND THEIR USE TO TREAT INFLAMMATORY DISEASES” (priority 2018, published 2026)
